Source: US20080014162A1, “Method to treat skin in need of a calmative using at least one C-Glycoside derivative” (L'OREAL, priority 2006, published 2008)

What was measured:
[1] = system: interleukin-8 secreted by normal human epidermal keratinocytes (NHEK) after stimulation with retinol; experiment: Assay of IL8 + stimulation with retinol in normal human epidermal keratinocytes (anti-irritant effect); details: for % blank (+retinol): IL8 as % of blank (+retinol); for IL8: 24 hours at 37° C.
Protocol: This test allows evaluation of the anti-irritant potential of various molecules, on a human keratinocyte (NHEK) cell line. In this test, an irritant situation is mimicked by exacerbating the production of IL-8 by the NHEKs by addition of retinol to the culture medium, Il-8 being involved in the initiation of keratinocyte irritation. Next, the anti-irritant effect of a C-glycoside compound is measured by means of its inhibitory action with respect to this exacerbated production.
Normal human epidermal keratinocytes are incubated in the presence of 10^−6 M retinol for 24 hours at 37° C. In response to the retinol, the production of the chemotactic agent interleukine 8 (IL-8) is measured via enzymatic assay using an assay kit (Elisa D8050) sold by the company R&D. The absorbance values are measured with a microplate reader (MRX/Dynatech) according to the procedures supplied with the assay kit.
A control test is also performed with dexamethasone, which is a reference calmative.
The results are expressed as a percentage of the control values after subtracting the background noise and as a percentage of inhibition of these values obtained in the presence of the compounds.

[2] = system: interleukin-8 secreted by normal human epidermal keratinocytes (NHEK); experiment: Assay of IL8 without stimulation in normal human epidermal keratinocytes; type: cell-based; details: concentration 2%
Excerpt: Dermatol., 102: 915-922 (1994)].

[3] = NHEK + 10^−6 M retinol, 24 hours, concentration 2%

SMILES | % blank (+retinol) ([1]; NHEK + 10^−6 M retinol, 24 hours, concentration 10^−7M) [%] | IL8 ([1]; NHEK + 10^−6 M retinol, concentration 10^−7M) [pg/mL] | % blank ([2]; IL8 as % of blank) [%] | % viability [2] [%] | IL8 [2] [pg/mL] | % blank (+retinol) [1, 3] [%] | IL8 ([1]; NHEK + 10^−6 M retinol, concentration 2%) [pg/mL] | % viability [1, 3] [%] | effect on the irritant reaction of retinol ([1]; conclusion in words from the IL8 assay in NHEK)
C[C@@H]1C[C@H]2[C@@H]3CCC4=CC(=O)C=C[C@]4(C)[C@@]3(F)[C@@H](O)C[C@]2(C)[C@@]1(O)C(=O)CO [Dexamethasone, reference compound] | 57 | 117.7 |  |  |  |  |  |  | 
CC(O)C[C@@H]1OC[C@@H](O)[C@H](O)[C@H]1O (stereo partly drawn) [C-β-D-xylopyranoside-2-hydroxypropane] |  |  | 53 | 97 | 145.2 | 60 | 124.4 | 104 | reduces the irritant reaction of retinol
